Assay results taken from patent US20100197650A1, “COMPOSITIONS AND METHODS OF TREATMENT COMPRISING CEFTAROLINE” (FOREST LABORATORIES HOLDINGS LTD., priority 2008, published 2010).
Converted amounts (≈) assume the structure as drawn. Like-named read-outs stand apart in the source and are kept apart here.

Columns and labels:
[1] = test system: AmpC-derepressed Enterobacter cloacae; assay: microbe, parasite or virus in culture; type: cell-based; conditions: for MBC / MIC: Enterobacter cloacae
HA-MRSA = assay: Susceptibility testing MIC/MBC, broth microdilution (Example 3); type: cell-based, Staphylococcus aureus; conditions: for MIC: read-out: MIC; for MIC50: read-out: MIC50
Procedure: Two hundred clinical HA-MRSA isolates, harboring the SCCmecIV type, were evaluated for susceptibility testing. […] Four strains, including 1 hVISA and 1 VISA, characterized by population analysis profile and Macro Etest were selected for time-kill analysis.
Trypose soy agar (TSA; Difco, Detroit, Mich.) was used for colony counting.
Minimum inhibitory concentrations (MIC) and minimum bactericidal concentrations (MBC) were determined by broth microdilution for all antimicrobials, according to the Clinical and Laboratory Standards Institute (CLSI) guidelines (Clinical and Laboratory Standards Institute. 2006. Methods for Dilution Antimicrobial Susceptibility Tests for Bacteria That Grow Aerobically; Approved Standard. 7th ed. Wayne, Pa.: CLSI). MBC values were determined by plating of aliquots of 5 μL from clear wells onto TSA. All susceptibility testing were performed in duplicate.

Staphylococcus aureus = assay: MIC, broth microdilution (Example 1); type: cell-based
Summary of the method: (§1)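 Frozen clinical or ATCC isolates are subcultured overnight on agar at 35 °C. Agents are serially diluted 2-fold in DMSO, then added to broth at 5% volume: HTM for Haemophilus, MH II for the rest, plus 2% lysed horse blood for pneumococci. Plates are incubated ~20 h at 35 °C and read visually.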

Haemophilus influenzae = assay: MIC, broth microdilution (Example 1); type: cell-based
Summary of the method: (§2)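 Following the CLSI M7-A7 microdilution standard, each agent alone was tested across seven 2-fold steps. The drugs were in DMSO, and the medium was HTM, MH II broth, or MH II broth with 2% lysed horse blood depending on species. MIC was read visually after ~20 h at 35 °C.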

Streptococcus pneumoniae = assay: MIC, broth microdilution (Example 1); type: cell-based; conditions: Streptococcus pneumoniae, read-out: MIC
Summary of the method: as §2

Klebsiella pneumoniae = assay: MIC, broth microdilution (Example 1); type: cell-based
Summary of the method: as §2

Escherichia coli = assay: MIC, broth microdilution (Example 1); type: cell-based; conditions: Escherichia coli, read-out: MIC
Summary of the method: as §1

[2] = E. cloacae (10) clinical isolates
[3] = HA-MRSA isolates of origin Blood
[4] = HA-MRSA isolates of origin Lung
[5] = HA-MRSA isolates of origin Skin
[6] = HA-MRSA isolates of origin Unknown
[7] = HA-MRSA isolates of origin Urine

CCO/N=C(\C(=O)N[C@@H]1C(=O)N2C(C(=O)[O-])=C(Sc3nc(-c4cc[n+](C)cc4)cs3)CS[C@H]12)c1nsc(N)n1 [Ceftaroline]
MBC range [1, 2]: 0.125 to 1024 µg/mL | MIC range [1, 2]: 0.125 to 512 µg/mL | MBC ([1]; E. cloacae isolate no. 4073): 512 µg/mL (≈ 847 µM) | MIC ([1]; E. cloacae isolate no. 4073): 256 µg/mL (≈ 423 µM) | MBC ([1]; E. cloacae isolate no. 5420): 128 µg/mL (≈ 212 µM) | MIC ([1]; E. cloacae isolate no. 5420): 64 µg/mL (≈ 106 µM) | % of Isolates with MBC 0.5 μg/mL (HA-MRSA; 200 HA-MRSA isolates): 22% | % of Isolates with MBC 1 μg/mL (HA-MRSA; 200 HA-MRSA isolates): 62.5% | % of Isolates with MBC 2 μg/mL (HA-MRSA; 200 HA-MRSA isolates): 15.5% | % of Isolates with MIC 0.25 μg/mL (HA-MRSA; 200 HA-MRSA isolates): 4% | % of Isolates with MIC 0.5 μg/mL (HA-MRSA; 200 HA-MRSA isolates): 35.5% | % of Isolates with MIC 1 μg/mL (HA-MRSA; 200 HA-MRSA isolates): 57% | % of Isolates with MIC 2 μg/mL (HA-MRSA; 200 HA-MRSA isolates): 1.5% | MBC range (HA-MRSA; 200 HA-MRSA isolates): 0.5 to 2 µg/mL | MIC range (HA-MRSA; 200 HA-MRSA isolates): 0.25 to 2 µg/mL | MBC range (HA-MRSA; [3]): 0.5 to 2 µg/mL | MIC range (HA-MRSA; [3]): 0.25 to 2 µg/mL | MBC range (HA-MRSA; [4]): 0.5 to 2 µg/mL | MIC range (HA-MRSA; [4]): 0.25 to 2 µg/mL | MBC range (HA-MRSA; [5]): 0.5 to 2 µg/mL | MIC range (HA-MRSA; [5]): 0.5 to 2 µg/mL | MBC range (HA-MRSA; [6]): 0.5 to 2 µg/mL | MIC range (HA-MRSA; [6]): 0.5 to 1 µg/mL | MBC range (HA-MRSA; [7]): 0.5 to 2 µg/mL | MIC range (HA-MRSA; [7]): 0.5 to 1 µg/mL | MBC (HA-MRSA; Staphylococcus aureus, MRSA / VISA, HA-MRSA isolate R2303 (VISA), read-out: MBC): 0.25 µg/mL (≈ 0.413 µM) | MIC (HA-MRSA; Staphylococcus aureus, MRSA / VISA, HA-MRSA isolate R2303 (VISA)): 0.25 µg/mL (≈ 0.413 µM) | MIC50 (HA-MRSA; Staphylococcus aureus, MRSA, 200 HA-MRSA isolates): 1 µg/mL (≈ 1.65 µM) | MBC (HA-MRSA; Staphylococcus aureus, MRSA, HA-MRSA isolate R3804, read-out: MBC): 0.25 µg/mL (≈ 0.413 µM) | MIC (HA-MRSA; Staphylococcus aureus, MRSA, HA-MRSA isolate R3804): 0.25 µg/mL (≈ 0.413 µM) | MBC (HA-MRSA; Staphylococcus aureus, MRSA, HA-MRSA isolate R3875 (hVISA), read-out: MBC): 1 µg/mL (≈ 1.65 µM) | MIC (HA-MRSA; Staphylococcus aureus, MRSA, HA-MRSA isolate R3875 (hVISA)): 1 µg/mL (≈ 1.65 µM) | MBC (HA-MRSA; Staphylococcus aureus, MRSA, HA-MRSA isolate R4039, read-out: MBC): 0.5 µg/mL (≈ 0.827 µM) | MIC (HA-MRSA; Staphylococcus aureus, MRSA, HA-MRSA isolate R4039): 0.5 µg/mL (≈ 0.827 µM) | MBC (HA-MRSA; Staphylococcus aureus, MRSA, HA-MRSA isolates of origin Blood, read-out: MBC50): 1 µg/mL (≈ 1.65 µM) | MIC50 (HA-MRSA; Staphylococcus aureus, MRSA, HA-MRSA isolates of origin Blood): 1 µg/mL (≈ 1.65 µM) | MBC (HA-MRSA; Staphylococcus aureus, MRSA, HA-MRSA isolates of origin Lung, read-out: MBC50): 1 µg/mL (≈ 1.65 µM) | MIC50 (HA-MRSA; Staphylococcus aureus, MRSA, HA-MRSA isolates of origin Lung): 1 µg/mL (≈ 1.65 µM) | MBC (HA-MRSA; Staphylococcus aureus, MRSA, HA-MRSA isolates of origin Skin, read-out: MBC50): 1 µg/mL (≈ 1.65 µM) | MIC50 (HA-MRSA; Staphylococcus aureus, MRSA, HA-MRSA isolates of origin Skin): 1 µg/mL (≈ 1.65 µM) | MBC (HA-MRSA; Staphylococcus aureus, MRSA, HA-MRSA isolates of origin Unknown, read-out: MBC50): 1 µg/mL (≈ 1.65 µM) | MIC50 (HA-MRSA; Staphylococcus aureus, MRSA, HA-MRSA isolates of origin Unknown): 1 µg/mL (≈ 1.65 µM) | MBC (HA-MRSA; Staphylococcus aureus, MRSA, HA-MRSA isolates of origin Urine, read-out: MBC50): 1 µg/mL (≈ 1.65 µM) | MIC50 (HA-MRSA; Staphylococcus aureus, MRSA, HA-MRSA isolates of origin Urine): 0.5 µg/mL (≈ 0.827 µM) | MIC90 (HA-MRSA; Staphylococcus aureus, 200 HA-MRSA isolates, read-out: MIC90): 1 µg/mL (≈ 1.65 µM) | MIC (Staphylococcus aureus; S. aureus 0765 (MRSA)): 2 µg/mL | MIC (Staphylococcus aureus; Staphylococcus aureus, MRSA, S. aureus 0765 (MRSA), read-out: MIC): 1 µg/mL | MIC (Staphylococcus aureus; Staphylococcus aureus, MRSA, S. aureus 2053 (MRSA), read-out: MIC): 2 µg/mL | MIC (Staphylococcus aureus; Staphylococcus aureus, MRSA, S. aureus 2202 (CA-MRSA), read-out: MIC): 1 µg/mL | MIC (Staphylococcus aureus; Staphylococcus aureus, MRSA, S. aureus 2296 (CA-MRSA), read-out: MIC): 1 µg/mL | MIC (Staphylococcus aureus; Staphylococcus aureus, MSSA, S. aureus 0753 (MSSA), read-out: MIC): 0.5 µg/mL | MIC (Staphylococcus aureus; Staphylococcus aureus, MSSA, S. aureus 2063 (MSSA), read-out: MIC): 0.5 µg/mL | MIC (Haemophilus influenzae; H. influenzae 1224): 0.12 µg/mL | MIC (Haemophilus influenzae; H. influenzae 2797 (BLNAR)): 0.12 µg/mL | MIC (Haemophilus influenzae; Haemophilus influenzae, H. influenzae 1224, read-out: MIC): 0.06 µg/mL | MIC (Haemophilus influenzae; Haemophilus influenzae, H. influenzae 2797 (BLNAR), read-out: MIC): 0.06 µg/mL | MIC (Haemophilus influenzae; Haemophilus influenzae, H. influenzae 2798 (BLNAR), read-out: MIC): 0.03 µg/mL | MIC (Haemophilus influenzae; Haemophilus influenzae, H. influenzae 2799 (BLNAR), read-out: MIC): 0.03 µg/mL | MIC (Streptococcus pneumoniae; PRSP, S. pneumoniae 0876 (PRSP)): 0.12 µg/mL | MIC (Streptococcus pneumoniae; PRSP, S. pneumoniae 0877 (PRSP)): 0.12 µg/mL | MIC (Streptococcus pneumoniae; PRSP, S. pneumoniae 0880 (PRSP)): 0.12 µg/mL | MIC (Streptococcus pneumoniae; PRSP, S. pneumoniae 0884 (PRSP)): 0.12 µg/mL | MIC (Streptococcus pneumoniae; S. pneumoniae 0869 (PSSP)): 0.008 µg/mL | MIC (Klebsiella pneumoniae; K. pneumoniae 1461): 0.5 µg/mL | MIC (Klebsiella pneumoniae; Klebsiella pneumoniae, K. pneumoniae 1340, read-out: MIC): 0.12 µg/mL | MIC (Klebsiella pneumoniae; Klebsiella pneumoniae, K. pneumoniae 1461, read-out: MIC): 0.25 µg/mL | MIC (Klebsiella pneumoniae; Klebsiella pneumoniae, K. pneumoniae 1468 (ESBL), read-out: MIC): 32 µg/mL | MIC (Escherichia coli; E. coli 1587): 0.12 µg/mL | MIC (Escherichia coli; E. coli 2273 (ESBL)): 2 µg/mL
